The source of these data is PubChem BioAssay (NCI).

Molecules are shown by their SMILES.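 Each compound was tested at five concentrations against cells in 96-well plates for 48 hours. At the GI50, growth is halved. TGI marks complete inhibition of growth.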

Some test systems named below: HOP-92 NSCLC; HS 578T breast; PC-3 prostate; SF-539 CNS; SK-OV-3 ovarian; SNB-19 CNS; UACC-257 melanoma.
Common to all, as to assay: growth of human tumour cells (NCI), 48 h

As to `CCN1CCN(C(=O)[C@@]2(C)CC[C@]3(C)CC[C@]4(C)C(=CC(=O)[C@@H]5[C@@]6(C)CC[C@H](OC7C[C@@H](O)[C@@H](O)C(C)O7)C(C)(C)[C@@H]6CC[C@]54C)[C@@H]3C2)CC1` (stereo partly specified), the GI50 in the test with HOP-92 NSCLC is 5.25 µM; in the test on HS 578T breast it was 7.52 µM; in the test on PC-3 prostate it was 2.47 µM; in the test on SF-539 CNS it was 0.937 µM; with SK-OV-3 ovarian, 9.96 µM; in the test with SNB-19 CNS, 2.26 µM. Moreover, the GI50 in the test on UACC-257 melanoma was 1.65 µM. For the same compound, the TGI with HOP-92 NSCLC amounted to 12.5 µM; with HS 578T breast, 17.8 µM; in the test on PC-3 prostate it was 9.02 µM; in the test on SF-539 CNS, 1.85 µM; with SK-OV-3 ovarian it was 19.5 µM; in the test on SNB-19 CNS it was 8.57 µM. The compound further displayed a TGI in the test with UACC-257 melanoma of 6.52 µM.
For `Nc1nn2cc(F)cnc2c1C(=O)Nc1cncc(F)c1N1CCC(C(=O)N2CCN(C3COC3)CC2)CC1`, the GI50 is 0.653 µM with HOP-92 NSCLC; 0.191 µM with HS 578T breast; 2.06 µM with PC-3 prostate; 0.164 µM in the test on SF-539 CNS; 0.243 µM with SK-OV-3 ovarian; 0.91 µM in the test with SNB-19 CNS. Further, the GI50 in the test with UACC-257 melanoma was 1.32 µM. The TGI is 13 µM in the test with HOP-92 NSCLC; 1.48 µM with HS 578T breast; more than 100 µM with PC-3 prostate; 0.571 µM in the test with SF-539 CNS; 6.02 µM in the test with SK-OV-3 ovarian; 7.68 µM with SNB-19 CNS. Also, the TGI in the test on UACC-257 melanoma is more than 76.4 µM.
For `O=C(/C=C/c1ccccc1)CCC1C(=O)c2ccccc2C1=O`, the TGI in the test with HOP-92 NSCLC, in the test on HS 578T breast, with PC-3 prostate, with SF-539 CNS, with SK-OV-3 ovarian and in the test on SNB-19 CNS was more than 100 µM throughout. The TGI in the test with UACC-257 melanoma is more than 100 µM.
Take `O=C(O)c1nnsc1-c1ccc(-c2snnc2C(=O)O)cc1`: the TGI in the test on HOP-92 NSCLC is more than 100 µM; with HS 578T breast, more than 100 µM; in the test with PC-3 prostate, more than 100 µM; with SF-539 CNS, 69.7 µM; in the test with SK-OV-3 ovarian, more than 100 µM; in the test on SNB-19 CNS it was more than 100 µM. The TGI with UACC-257 melanoma was more than 100 µM.
Regarding `CCCCC#CC1=C(Br)C(=O)OC1`, the GI50 was 2.04 µM with HOP-92 NSCLC; 3.89 µM in the test with HS 578T breast; 1.28 µM in the test with PC-3 prostate; 2.52 µM in the test with SF-539 CNS; 36.1 µM in the test on SK-OV-3 ovarian; 12.9 µM in the test on SNB-19 CNS. The GI50 in the test with UACC-257 melanoma was 2.2 µM. The TGI was 18.7 µM in the test with HOP-92 NSCLC; 23.1 µM in the test on HS 578T breast; 9.43 µM in the test on PC-3 prostate; 14.4 µM with SF-539 CNS; more than 77.2 µM with SK-OV-3 ovarian; 37.1 µM in the test on SNB-19 CNS. This compound also yielded a TGI with UACC-257 melanoma of 5.67 µM.
In the case of `NC(=O)/C=C/C(=O)c1c(Cl)cccc1Cl`, the GI50 in the test with HOP-92 NSCLC is 0.574 µM; in the test on HS 578T breast it was 2.2 µM; in the test with PC-3 prostate it was 1.46 µM; in the test with SF-539 CNS it was 1.41 µM; in the test with SK-OV-3 ovarian it was 2.6 µM; in the test with SNB-19 CNS, 1.75 µM. In addition, the GI50 in the test with UACC-257 melanoma is 1.38 µM. The TGI came to 1.94 µM in the test with HOP-92 NSCLC; 5.15 µM in the test with HS 578T breast; 2.81 µM in the test on PC-3 prostate; 2.71 µM in the test on SF-539 CNS; 6.38 µM in the test with SK-OV-3 ovarian; 3.38 µM with SNB-19 CNS. The TGI in the test with UACC-257 melanoma was 2.68 µM.
With `Cc1cc(Cl)cc(OCCn2cc(F)cn2)c1-c1nc(N)nc2c1CN(C(=O)NCC(C)(F)F)C2`, the GI50 in the test on HOP-92 NSCLC was 0.192 µM; in the test with PC-3 prostate, 0.0924 µM; in the test with SF-539 CNS, 0.181 µM; with SK-OV-3 ovarian it was 0.0492 µM; in the test with SNB-19 CNS, 0.477 µM; with UACC-257 melanoma it was 0.142 µM. In addition, the TGI in the test on HOP-92 NSCLC was 0.728 µM; in the test on HS 578T breast, more than 100 µM; with PC-3 prostate it was more than 100 µM; in the test with SF-539 CNS, more than 100 µM; in the test on SK-OV-3 ovarian it was more than 100 µM; with SNB-19 CNS it was more than 100 µM. For the same compound, the TGI in the test with UACC-257 melanoma was more than 100 µM.
In the case of `O=C(Nc1ccc(Nc2ccncc2)cc1)c1ccc([N+](=O)[O-])cc1`, the GI50 was 4.96 µM with HOP-92 NSCLC; 5.8 µM in the test with HS 578T breast; 13.7 µM with PC-3 prostate; 3.58 µM in the test on SF-539 CNS; 5.85 µM with SK-OV-3 ovarian; 4.47 µM in the test with SNB-19 CNS. For the same compound, the GI50 with UACC-257 melanoma was 10.5 µM. For the same compound, the TGI with HOP-92 NSCLC is 21.7 µM; in the test with HS 578T breast, 25.9 µM; with PC-3 prostate it was more than 56.6 µM; with SF-539 CNS, 13.2 µM; in the test with SK-OV-3 ovarian, 19.8 µM; in the test with SNB-19 CNS, 20.7 µM. Also, the TGI with UACC-257 melanoma worked out at 26.2 µM.
For `Cc1ccc(S(=O)(=O)Nc2ccccc2C=O)cc1`, the TGI in the test on HOP-92 NSCLC was 13.1 µM; with HS 578T breast, 59.6 µM; in the test with PC-3 prostate, 35.6 µM; in the test with SF-539 CNS it was 5.08 µM; in the test on SK-OV-3 ovarian, 94.8 µM; in the test with SNB-19 CNS, 75 µM. The TGI in the test on UACC-257 melanoma was determined as 45.7 µM.
Consider `CCN(CC)CCC(CNc1ccnc2cc(Cl)ccc12)c1ccc(Cl)cc1` (stereo unspecified), for which the GI50 was 0.995 µM with HOP-92 NSCLC; 1.66 µM with HS 578T breast; 3.28 µM in the test with PC-3 prostate; 1.25 µM with SF-539 CNS; 2.1 µM in the test with SK-OV-3 ovarian; 1.98 µM in the test with SNB-19 CNS. In addition, the GI50 with UACC-257 melanoma was 1.02 µM. The TGI turned out to be 3.19 µM in the test on HOP-92 NSCLC; 4.67 µM in the test on HS 578T breast; 17.7 µM in the test with PC-3 prostate; 2.77 µM in the test on SF-539 CNS; 5.4 µM in the test with SK-OV-3 ovarian; 5.78 µM in the test with SNB-19 CNS. This compound also had a TGI in the test with UACC-257 melanoma of 2.37 µM.
Take `S=C(Nc1ccc(Cl)cc1)Nc1ccc(-c2nc3ccccc3s2)cc1`: the GI50 in the test with HOP-92 NSCLC was 17.2 µM; in the test with HS 578T breast, 16.4 µM; with PC-3 prostate it was 14.3 µM; with SF-539 CNS it was 17.5 µM; in the test with SK-OV-3 ovarian it was 24.9 µM; in the test with SNB-19 CNS, 19 µM. Further, in the test on UACC-257 melanoma, the GI50 was 20.3 µM. Further, the TGI in the test on HOP-92 NSCLC was 45.5 µM; in the test on HS 578T breast, 39.2 µM; in the test on PC-3 prostate, 54.9 µM; in the test with SF-539 CNS it was 34 µM; in the test with SK-OV-3 ovarian, 63.1 µM; with SNB-19 CNS, 69.6 µM. Also, the TGI with UACC-257 melanoma stood at 44.9 µM.
For the compound `COc1cc(-c2oc(=O)ccc2C#Cc2ccccn2)cc(OC)c1OC`, the GI50 with HOP-92 NSCLC is 2.23 µM; in the test with HS 578T breast, 2.98 µM; with PC-3 prostate, 2.21 µM; in the test on SF-539 CNS, 3.03 µM; in the test with SK-OV-3 ovarian, 3.43 µM; in the test on SNB-19 CNS, 3.8 µM. The GI50 in the test with UACC-257 melanoma is 4.12 µM. In addition, the TGI in the test with HOP-92 NSCLC is 25.4 µM; in the test with HS 578T breast it was more than 24 µM; in the test with PC-3 prostate, more than 100 µM; with SF-539 CNS, 13.8 µM; in the test with SK-OV-3 ovarian, 97.7 µM; in the test with SNB-19 CNS, more than 76.1 µM. In the test on UACC-257 melanoma, the TGI was more than 61.8 µM.
